Assay results published in publication PMC8155056, “Cooperative inhibition of SNARE-mediated vesicle fusion by α-synuclein monomers and oligomers” (Scientific Reports, 2021).
Entries after “also recorded” stand apart in the source; their conditions may differ.

Assays:
[1] = system: α-Syn oligomers and monomers; assay: Western blot of α-Syn monomer incubated with preformed oligomers; conditions: α-Syn monomer (500 nM) with preformed oligomers (10 nM), no dopamine, 37 °C, 12 h / up to 10 hours (Fig. S4)
Experimental: We first tested whether the incubation of the α-Syn monomer with oligomers increases the amount of α-Syn oligomers. […] This is consistent with previous work showing that dopamine-modified α-Syn oligomers are not seeding competent.
Purified proteins were subjected to 15% SDS/PAGE and then transferred to polyvinylidene fluoride membranes (Bio-Rad), which were then blocked with 5% (w/v) skim milk in Tris-buffered saline with 0.1% Tween 20 detergent (TBST) (500 mM Tris, pH 8.5; 150 mM NaCl; […]) for 1 h and incubated with α-Syn primary antibody [sc-52979 (Santa Cruz Biotechnology) at a 1:750 dilution factor] for 12 h at 4 °C. The membrane was rinsed with TBST, incubated with anti-mouse IgG peroxidase secondary antibody (Sigma; 1:2500 dilution factor), washed again with TBST, and reacted with chemiluminescent substrate solution (ThermoFisher Scientific, SuperSignal West Pico Chemiluminescent Substrate) for 1 min. Resulting bands were detected using an LAS-4000 instrument (Fujifilm Life Science).
Fig. S4. […] Vesicle compositions are 73% PC, 20% cholesterol, and 7% PS. α-Syn monomers (500 nM) were incubated with the purified dopamine-induced oligomers (10 nM) at 37 ℃ for up to 10 hours and then the mixtures were applied to the Western blot analysis and probed with anti–α-Syn antibody. […] The image was edited by Adobe Illustrator CS6 (Adobe).

[2] = system: SNARE-mediated vesicle docking; conditions: nonaggregated α-Syn monomer, 10 μM; ref [42]; cited from earlier work
Excerpt: For the molecular mechanism of the inhibition, we proposed that α-Syn oligomers interfere with vesicle docking by clustering vesicles. […] Nonaggregated α-Syn or its monomer uses its interaction with Syb2 to help SNARE complex assembly[26] and induces the clustering of vesicles or Syb2, which promotes SNARE complex formation[25],[30]. […] All the functions of the α-Syn monomer are beneficial for neurotransmitter release.

[3] = system: neuronal SNARE-mediated vesicle fusion (t-SNAREs syntaxin HT/SNAP25 and v-SNARE Syb2); assay: In vitro lipid-mixing (FRET) assay of SNARE-mediated vesicle fusion, v-vesicles with PS; assay type: biochemical
Excerpt: To address this question, we performed an in vitro lipid-mixing assay using fluorescently labeled proteoliposomes[31],[32]. In this assay, t-SNAREs [complexes of syntaxin Habc-trunctated (HT) (amino acids 168–288 of syntaxin 1A, lacking the Habc domain) and synaptosomal-associated protein-25 (SNAP25)] and v-SNARE Syb2 were incorporated into two different liposomes (t- and v-vesicles, respectively)[15],[31]. When t-vesicles doped with donor dyes (T) and v-vesicles doped with acceptor dyes (V) were fused together through SNARE complex formation[31],[33],[34], the lipids from the two types of vesicles mixed (Fig. 1B). This lipid mixing was monitored by the fluorescence resonance energy transfer (FRET) signal between 1,1′-dioctadecyl-3,3,3′,3′-tetramethylindocarbocyanine perchlorate (DiI) and 1,1′-dioctadecyl3,3,3′,3′-tetramethylindodicarbocyanine perchlorate (DiD) dyes (Supplementary Fig. S1B). α-Syn oligomers were prepared by incubating the α-Syn monomer (15 μM) with dopamine (100 μM) at 37 °C for 72 h (Supplementary Fig. S2A) and purified using size exclusion chromatography (Supplementary Fig. S2B and C)[15],[35]–[37]. We have estimated that the oligomers contain approximately 17 α-Syn monomeric subunits in our previous work[15]. Without the addition of α-Syn oligomers, the T-V mixture presented a significant mixing of lipids (Fig. 1C, the gray line).
We prepared three 30-residue peptides (CFα1, CFα2, and CFα3) that were mainly derived from the C-terminal domain of α-Syn (Anygen, South Korea) (Fig. 5A; Table 1) because the C-terminal domain of α-Syn (a.a. 96–140) is known to bind to the N-terminal domain of Syb2[26]. We confirmed the binding between the peptide and Syb2 using fluorescence anisotropy assay (Supplementary Fig. S8). […]
(§1) t-Vesicles labeled with DiI and v-vesicles labeled with DiD were mixed together to reach a 20 μM lipid concentration. […] We used 532-nm light for excitation and detected the FRET signal (at 690 nm) every 10 s using a temperature-controlled fluorescence spectrophotometer (Cary Eclipse, Agilent) at 37 °C.

Syb2-carrying v-vesicles = assay: Cryo-EM of v-vesicle clustering
Experimental: Then, we tested the effect on vesicle clustering. We have proposed that α-Syn oligomers inhibit vesicle fusion by clustering synaptic vesicle mimics in vitro, thereby limiting the number of vesicles available for docking. A few micromolar α-Syn monomer is also known to induce vesicle clustering[27],[29],[30],[38]. Thus, it is possible that the α-Syn monomer by itself cannot induce vesicle clustering at the low concentration (less than 1 μM) that we applied in this work but assists α-Syn oligomers in clustering vesicles. We obtained images of v-vesicles treated with α-Syn oligomers in the presence and absence of monomers using cryo-electron microscopy (cryo-EM) (Fig. 2). The molar ratio of lipid: α-Syn oligomers: α-Syn monomers was 200:1:20. When more than ten vesicles were attached together, we assigned them as a vesicle clustering. In the absence of α-Syn, v-vesicles appeared without clustering (Fig. 2A). […] Cryo-EM could not resolve α-Syn oligomers because of its resolution limit. Since α-Syn oligomers are known to inhibit vesicle fusion through binding to the N-terminal domain of Syb2[15], we tested if their specific interactions with Syb2 are responsible for clustering the vesicles. We reconstituted v-vesicles with Syb2 lacking the N-terminal region (nt-Syb2, amino acids 29–116) and incubated them with α-Syn oligomers. […] While 22.7 ± 1.2 vesicles consisted of a cluster with α-Syn oligomers, 123.5 ± 11.5 vesicles clustered after the addition of α-Syn monomers together with oligomers. […] Although it is difficult to quantify the fraction of the flattened region, this structure was not observed in images of vesicles treated with α-Syn oligomers only (Fig. 2C, enlarged image). The addition of α-Syn monomer with α-Syn oligomers seemed to induce tighter adhesion between the vesicles.
v-Vesicles were incubated with α-Syn (molar ratio of lipid:α-Syn oligomer: monomer = 200:1:20). A 200-mesh carbon grid (Electron Microscopy Sciences) was glow-discharged using the PELCO easiGlow plasma cleaning system (Ted Pella, Inc.). […]

[4] = system: SNARE-mediated vesicle fusion (v-vesicles without PS); assay: In vitro lipid-mixing (FRET) assay with v-vesicles prepared with 0% PS; assay type: biochemical; conditions: v-vesicles 0% PS
Experimental: Figure 3 α-Syn monomer interactions with the lipid membrane enable cooperative inhibition of vesicle fusion. (A) The effect of the lipid-binding-deficient mutant of the α-Syn monomer (T44P/A89P) on fusion inhibition. v-Vesicles (V) were incubated with the T44P/A89P monomer for 10 min, and then α-Syn oligomers and t-vesicles (T) were added to the premixture. T and V (20 μM lipid concentration) were mixed together at 37 °C without α-Syn (T-V, gray line). […] A control measurement using soluble Syb2 confirmed that lipid mixing was driven by SNARE complex formation (beige line). Bar graphs were obtained from the values at 2000s from the FRET measurements (± SEM, N = 3). *P < 0.05, **P < 0.01, ***P < 0.001 by Student’s t test. (B) The effect of the negatively charged lipid (PS) on fusion inhibition. v-Vesicles (V) prepared with 0% PS were used in the measurement. v-Vesicles without PS were incubated with wild-type α-Syn monomer, and then t-vesicles (T) and oligomers were added to the premixture. […]
as §1

Q: For α-synuclein [α-Syn monomer], which “change in amounts of oligomers and monomers” value [1] is on record?
A: No change in the intensities of the oligomers, multimers, and monomer was observed; also recorded: no change in the amounts of oligomers and monomers was observed

Q: What about the “effect on SNARE-dependent vesicle docking” value [2] of the same substance?
A: beneficial for SNARE-dependent vesicle docking

Q: What about the “fusion efficiency (relative lipid mixing)” value ([3]; 10 nM α-Syn oligomers + 850 nM α-Syn monomer, monomer pre-incubated with V 10 min, 37 °C, at 1800 s, N = 3) of the same substance?
A: 25%

Q: What about the “effect on fusion inhibition by oligomers” value ([3]; wild-type α-Syn monomer together with 10 nM α-Syn oligomers, 37 °C) of the same substance?
A: more severe inhibition of vesicle fusion between T and V was observed as the concentration of α-Syn monomer increased; also recorded: the FRET signal was lower than that of the α-Syn oligomer-treated vesicle fusion

Q: What about the “effect on lipid mixing” value ([3]; α-Syn monomer alone, 200–850 nM, 10 min incubation with v-vesicles, N = 3) of the same substance?
A: negligible effect on lipid mixing; also recorded: no effect on SNARE-mediated lipid mixing; also recorded: negligible effect on SNARE-mediated vesicle fusion

Q: What about the “clustering of v-vesicles” value (Syb2-carrying v-vesicles; α-Syn monomer alone, lipid:monomer 10:1 (5 μM:0.5 μM)) of the same substance?
A: no clustering of v-vesicles was observed

Q: And the “clustering of v-vesicles” value (Syb2-carrying v-vesicles; α-Syn monomer and oligomers, lipid:oligomers:monomers 200:1:20)?
A: they formed larger clusters; also recorded: The vesicle cluster was significantly larger than that observed in (C)

Q: What about the “number of vesicles per cluster” value (Syb2-carrying v-vesicles; α-Syn monomers together with oligomers, lipid:oligomers:monomers 200:1:20) of the same substance?
A: 123.5 ± 11.5 vesicles

Q: What about the “recovery of SNARE-mediated lipid mixing” value ([4]; 2 μM wild-type α-Syn monomer with α-Syn oligomers, 37 °C, at 2000 s, N = 3) of the same substance?
A: ~100%

Q: What about the “effect on fusion inhibition by oligomers” value ([4]; wild-type α-Syn monomer (200 nM to 2 μM) with α-Syn oligomers) of the same substance?
A: the FRET signal increased; also recorded: attenuated
